We go through nine compounds from PubChem BioAssay (NCI).

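48-hour exposure; five concentrations; linearly interpolated endpoints. At the GI50, growth is halved. TGI denotes the concentration required for complete inhibition of growth.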

Experiment in all cases: NCI-60 cell line screen, 48 h
Assay [1] relates to HCC-2998 colon.
For assay [2], the system named is HOP-92 NSCLC.
Assay [3] has as its system NCI-H23 lung.
In assay [4] the test system is SK-OV-3 ovarian.
For assay [5], the system named is CAKI-1 renal.
In assay [6] the test system is RXF 393 renal.
In assay [7] the test system is TK-10 renal.
The test system of assay [8] is KM12 colon.
The test system of assay [9] is HOP-62 NSCLC.
Assay [10] concerns SN12C renal.

With `Cc1nc2ccccc2nc1-c1ccc(N=[N+]([O-])c2ccc(-c3nc4ccccc4nc3C)cc2)cc1`, the TGI in assay [1] was over 100 µM; in assay [2], over 66.1 µM; in [3], over 100 µM; in assay [4] it was over 82.5 µM; in assay [5], over 100 µM; in [6] it was over 95.1 µM. Moreover, the TGI in assay [7] was 50.5 µM; in assay [8] it was over 100 µM; in assay [9] it was over 81.8 µM; in [10], over 100 µM.

For `O=C(NCCCCN=c1cccccc1NCCCCNC(=O)OCc1ccccc1)OCc1ccccc1`, the TGI in assay [1] turned out to be 32.1 µM; in assay [2] it was 20.1 µM; in assay [3], 48.8 µM; in [4], 45.5 µM; in assay [5], 37.9 µM; in assay [6], 40.4 µM. The TGI was found to be 53.9 µM in assay [7], 32.4 µM in assay [8], 39 µM in assay [9] and 51.6 µM in assay [10].

Take `CCOC(=O)C1(c2ccccc2)CCC(=O)CC1`: the TGI in assay [1], in assay [2], in [3], in [4], in assay [5] and in assay [6] was over 100 µM throughout. The TGI in assay [7], in assay [8], in [9] and in assay [10] was over 100 µM throughout.

For `CN(C)c1c([O-])c(=[N+](C)C)c1=O`, the TGI in assay [1], in assay [2], in assay [3], in assay [4], in [5] and in [6] was over 100 µM each time. Also, the TGI in assay [7], in assay [8], in assay [9] and in assay [10] was over 100 µM each time.

As for `CCN(CC)c1nc(-c2ccc(Cl)cc2Cl)nc2ccccc12`, the GI50 in assay [1] is 16.7 µM; in [2], 22 µM; in assay [3], 22.8 µM; in assay [4], 26.5 µM; in assay [5], 16.5 µM; in assay [6] it was 17.2 µM. For the same compound, the GI50 in [7] was 23.8 µM; in assay [8], 20.2 µM; in [9], 17.3 µM; in assay [10], 17.2 µM. The TGI in assay [1] was 31.7 µM; in assay [2], 93.4 µM; in [3], 62.8 µM; in assay [4], over 79.9 µM; in [5], 62.4 µM; in assay [6], 42.5 µM. The TGI in [7] is 63.3 µM; in assay [8], 59.8 µM; in assay [9] it was 35.6 µM; in assay [10], 46.2 µM.

On to `COc1ccc(-c2oc(=O)ccc2-c2cc(OC)c(OC)c(OC)c2)cc1F`, for which the GI50 in [1] was 33.4 µM; in [2], 5.69 µM; in [3] it was 25.9 µM; in assay [4], 80 µM; in assay [5], 9.64 µM; in [6] it was 11.6 µM. Besides, the GI50 in [7] is 39.4 µM; in assay [8], 4.52 µM; in assay [9] it was 32.7 µM; in [10] it was 38.1 µM. The TGI is over 100 µM in assay [1]; 65 µM in assay [2]; over 100 µM in [3]; over 100 µM in [4]; over 100 µM in assay [5]; 29.1 µM in [6]. The TGI in assay [7], in [8], in [9] and in [10] was over 100 µM throughout.

In the case of `COc1cc(C2c3cc4c(cc3C(O)C(CO)C2CO)OCO4)cc(OC)c1OC` (stereo not given), the GI50 is 1.78 µM in assay [1]; over 100 µM in [2]; 4.21 µM in assay [3]; 1.57 µM in assay [4]; 3.09 µM in assay [5]; 1.12 µM in assay [6]. For the same compound, the GI50 is over 23.2 µM in assay [7], 0.494 µM in [8], 1.47 µM in assay [9] and 4.94 µM in [10]. The TGI in [1] was over 100 µM; in assay [2], over 100 µM; in assay [3] it was over 100 µM; in assay [4], over 100 µM; in [5] it was over 46.2 µM; in [6] it was over 100 µM. Further, the TGI in assay [7] was over 100 µM; in [8] it was over 47 µM; in assay [9], over 100 µM; in assay [10] it was over 100 µM.

`COc1ccc(C(O)c2nccn2C)c(OC)c1` (stereo not given): the TGI in [1], in [2], in [3], in assay [4], in [5] and in assay [6] was over 100 µM throughout. Also, the TGI in assay [7], in [8], in assay [9] and in assay [10] was over 100 µM in each case.

`COc1cc(CNCCCN2C(=O)c3ccc4c5c(ccc(c35)C2=O)C(=O)N(CCCNCc2cc(OC)c(OC)c(OC)c2)C4=O)cc(OC)c1OC`: the GI50 in [1] is 0.363 µM; in assay [2], 1.02 µM; in [3], 0.35 µM; in assay [4] it was 1.01 µM; in [5], 3.28 µM; in assay [6], 0.35 µM. Also, the GI50 was 0.416 µM in [7], 0.238 µM in assay [8], 0.477 µM in assay [9] and 0.227 µM in assay [10]. Besides, the TGI in [1] was determined as 0.915 µM; in assay [2] it was 2.49 µM; in assay [3], 1.22 µM; in assay [4], 2.65 µM; in assay [5], 9.64 µM; in [6], 0.99 µM. Besides, the TGI in assay [7] was 1.32 µM; in [8], 0.834 µM; in assay [9], 1.32 µM; in [10], 0.475 µM.
